Measurements published in patent US20210255193A1, “LYSINE REACTIVE PROBES AND USES THEREOF” (The Scripps Research Institute, priority 2017, published 2021).

Columns and labels:
Assay in all cases: competitive isoTOP-ABPP
Format in all cases: binding
[1] = biological target: T1, TRAP1 Heat shock protein 75 kDa, mitochondrial (Homo sapiens, UniProt Q12931); conditions: for isoTOP-ABPP ratio (R) at liganded lysine Q12931_K699: sol, 231
T1 construct: isoTOP-ABPP experiments performed in cell lysates (in vitro); endogenous in cells; host or cells: soluble proteome of human cancer cell lines (MDA-MB-231, Ramos, Jurkat)
T1 sequence (Q12931 60-704): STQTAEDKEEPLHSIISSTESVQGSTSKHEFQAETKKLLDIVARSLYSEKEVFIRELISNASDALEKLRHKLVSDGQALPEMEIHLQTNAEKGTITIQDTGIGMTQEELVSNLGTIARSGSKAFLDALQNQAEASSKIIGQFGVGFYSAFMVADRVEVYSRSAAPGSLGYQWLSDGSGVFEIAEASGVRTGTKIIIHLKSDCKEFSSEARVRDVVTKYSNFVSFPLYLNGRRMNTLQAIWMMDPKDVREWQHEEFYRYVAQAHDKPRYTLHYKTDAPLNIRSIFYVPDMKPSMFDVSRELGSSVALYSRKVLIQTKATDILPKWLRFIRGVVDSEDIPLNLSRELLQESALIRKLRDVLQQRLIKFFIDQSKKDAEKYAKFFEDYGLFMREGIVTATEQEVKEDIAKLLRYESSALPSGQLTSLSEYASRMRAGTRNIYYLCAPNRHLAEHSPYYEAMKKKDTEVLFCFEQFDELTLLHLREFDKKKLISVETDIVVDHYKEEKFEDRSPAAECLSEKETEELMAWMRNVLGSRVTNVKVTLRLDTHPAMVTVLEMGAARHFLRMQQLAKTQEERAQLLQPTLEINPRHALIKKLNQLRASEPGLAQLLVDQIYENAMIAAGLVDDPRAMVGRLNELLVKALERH
How it was run: (§1)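 Fragments at 50 μM (activated esters) or 100 μM (guanidinylating agents) were incubated with 0.5 ml lysate before probe labeling. After 0.1 mM STP-alkyne for 1 h, samples were clicked to isotopically distinct TEV tags, and R taken as DMSO-over-compound MS1 peak-area ratio.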

[2] = biological target: T2, MTOR Serine/threonine-protein kinase mTOR (Homo sapiens, UniProt P42345)
T2 construct: isoTOP-ABPP experiments performed in cell lysates (in vitro); endogenous in cells; host or cells: soluble proteome of human cancer cell lines (MDA-MB-231; Ramos and Jurkat also prepared)
How it was run: as §1

[3] = biological target: T3, WARS Tryptophan--tRNA ligase, cytoplasmic (Homo sapiens, UniProt P23381); conditions: for isoTOP-ABPP reactivity ratio at lysine P23381_K256 / isoTOP-ABPP ratio (R) at liganded lysine P23381_K256: 50 uM, in vitro; for isoTOP-ABPP reactivity ratio at lysine P23381_K256: 231 sol; for isoTOP-ABPP ratio (R) at liganded lysine P23381_K256: sol, 231
T3 construct: isoTOP-ABPP experiments performed in cell lysates (in vitro); endogenous in cells; host or cells: soluble proteome of human cancer cell lines (MDA-MB-231; Ramos and Jurkat also prepared)
T3 sequence (P23381 1-471): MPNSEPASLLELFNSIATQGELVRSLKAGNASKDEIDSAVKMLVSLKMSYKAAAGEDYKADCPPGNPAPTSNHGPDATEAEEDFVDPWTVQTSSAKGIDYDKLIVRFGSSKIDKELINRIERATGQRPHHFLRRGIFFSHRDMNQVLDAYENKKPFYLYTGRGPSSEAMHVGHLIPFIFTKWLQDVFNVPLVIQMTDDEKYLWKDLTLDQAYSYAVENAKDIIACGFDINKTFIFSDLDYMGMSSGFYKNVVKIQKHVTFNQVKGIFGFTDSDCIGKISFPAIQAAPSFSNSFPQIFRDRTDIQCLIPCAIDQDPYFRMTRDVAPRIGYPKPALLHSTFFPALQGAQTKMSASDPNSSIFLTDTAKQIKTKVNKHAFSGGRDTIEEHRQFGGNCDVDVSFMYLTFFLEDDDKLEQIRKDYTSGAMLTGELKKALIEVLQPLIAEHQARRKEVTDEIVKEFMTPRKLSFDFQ
How it was run: as §1

[4] = biological target: T4, HNRNPK Heterogeneous nuclear ribonucleoprotein K (Homo sapiens, UniProt P61978); conditions: for isoTOP-ABPP ratio (R) at liganded lysine P61978_K405: sol, 231
T4 construct: isoTOP-ABPP experiments performed in cell lysates (in vitro); endogenous in cells; host or cells: soluble proteome of human cancer cell lines (MDA-MB-231, Ramos, Jurkat)
How it was run: as §1

[5] = biological target: T5, DYNC1H1 Cytoplasmic dynein 1 heavy chain 1 (Homo sapiens, UniProt Q14204); conditions: 50 uM, in vitro; for isoTOP-ABPP ratio (R) at liganded lysine Q14204_K1649: sol, 231
T5 construct: isoTOP-ABPP experiments performed in cell lysates (in vitro); endogenous in cells; host or cells: soluble proteome of human cancer cell lines (MDA-MB-231, Ramos, Jurkat)
T5 sequence (Q14204 whole entry): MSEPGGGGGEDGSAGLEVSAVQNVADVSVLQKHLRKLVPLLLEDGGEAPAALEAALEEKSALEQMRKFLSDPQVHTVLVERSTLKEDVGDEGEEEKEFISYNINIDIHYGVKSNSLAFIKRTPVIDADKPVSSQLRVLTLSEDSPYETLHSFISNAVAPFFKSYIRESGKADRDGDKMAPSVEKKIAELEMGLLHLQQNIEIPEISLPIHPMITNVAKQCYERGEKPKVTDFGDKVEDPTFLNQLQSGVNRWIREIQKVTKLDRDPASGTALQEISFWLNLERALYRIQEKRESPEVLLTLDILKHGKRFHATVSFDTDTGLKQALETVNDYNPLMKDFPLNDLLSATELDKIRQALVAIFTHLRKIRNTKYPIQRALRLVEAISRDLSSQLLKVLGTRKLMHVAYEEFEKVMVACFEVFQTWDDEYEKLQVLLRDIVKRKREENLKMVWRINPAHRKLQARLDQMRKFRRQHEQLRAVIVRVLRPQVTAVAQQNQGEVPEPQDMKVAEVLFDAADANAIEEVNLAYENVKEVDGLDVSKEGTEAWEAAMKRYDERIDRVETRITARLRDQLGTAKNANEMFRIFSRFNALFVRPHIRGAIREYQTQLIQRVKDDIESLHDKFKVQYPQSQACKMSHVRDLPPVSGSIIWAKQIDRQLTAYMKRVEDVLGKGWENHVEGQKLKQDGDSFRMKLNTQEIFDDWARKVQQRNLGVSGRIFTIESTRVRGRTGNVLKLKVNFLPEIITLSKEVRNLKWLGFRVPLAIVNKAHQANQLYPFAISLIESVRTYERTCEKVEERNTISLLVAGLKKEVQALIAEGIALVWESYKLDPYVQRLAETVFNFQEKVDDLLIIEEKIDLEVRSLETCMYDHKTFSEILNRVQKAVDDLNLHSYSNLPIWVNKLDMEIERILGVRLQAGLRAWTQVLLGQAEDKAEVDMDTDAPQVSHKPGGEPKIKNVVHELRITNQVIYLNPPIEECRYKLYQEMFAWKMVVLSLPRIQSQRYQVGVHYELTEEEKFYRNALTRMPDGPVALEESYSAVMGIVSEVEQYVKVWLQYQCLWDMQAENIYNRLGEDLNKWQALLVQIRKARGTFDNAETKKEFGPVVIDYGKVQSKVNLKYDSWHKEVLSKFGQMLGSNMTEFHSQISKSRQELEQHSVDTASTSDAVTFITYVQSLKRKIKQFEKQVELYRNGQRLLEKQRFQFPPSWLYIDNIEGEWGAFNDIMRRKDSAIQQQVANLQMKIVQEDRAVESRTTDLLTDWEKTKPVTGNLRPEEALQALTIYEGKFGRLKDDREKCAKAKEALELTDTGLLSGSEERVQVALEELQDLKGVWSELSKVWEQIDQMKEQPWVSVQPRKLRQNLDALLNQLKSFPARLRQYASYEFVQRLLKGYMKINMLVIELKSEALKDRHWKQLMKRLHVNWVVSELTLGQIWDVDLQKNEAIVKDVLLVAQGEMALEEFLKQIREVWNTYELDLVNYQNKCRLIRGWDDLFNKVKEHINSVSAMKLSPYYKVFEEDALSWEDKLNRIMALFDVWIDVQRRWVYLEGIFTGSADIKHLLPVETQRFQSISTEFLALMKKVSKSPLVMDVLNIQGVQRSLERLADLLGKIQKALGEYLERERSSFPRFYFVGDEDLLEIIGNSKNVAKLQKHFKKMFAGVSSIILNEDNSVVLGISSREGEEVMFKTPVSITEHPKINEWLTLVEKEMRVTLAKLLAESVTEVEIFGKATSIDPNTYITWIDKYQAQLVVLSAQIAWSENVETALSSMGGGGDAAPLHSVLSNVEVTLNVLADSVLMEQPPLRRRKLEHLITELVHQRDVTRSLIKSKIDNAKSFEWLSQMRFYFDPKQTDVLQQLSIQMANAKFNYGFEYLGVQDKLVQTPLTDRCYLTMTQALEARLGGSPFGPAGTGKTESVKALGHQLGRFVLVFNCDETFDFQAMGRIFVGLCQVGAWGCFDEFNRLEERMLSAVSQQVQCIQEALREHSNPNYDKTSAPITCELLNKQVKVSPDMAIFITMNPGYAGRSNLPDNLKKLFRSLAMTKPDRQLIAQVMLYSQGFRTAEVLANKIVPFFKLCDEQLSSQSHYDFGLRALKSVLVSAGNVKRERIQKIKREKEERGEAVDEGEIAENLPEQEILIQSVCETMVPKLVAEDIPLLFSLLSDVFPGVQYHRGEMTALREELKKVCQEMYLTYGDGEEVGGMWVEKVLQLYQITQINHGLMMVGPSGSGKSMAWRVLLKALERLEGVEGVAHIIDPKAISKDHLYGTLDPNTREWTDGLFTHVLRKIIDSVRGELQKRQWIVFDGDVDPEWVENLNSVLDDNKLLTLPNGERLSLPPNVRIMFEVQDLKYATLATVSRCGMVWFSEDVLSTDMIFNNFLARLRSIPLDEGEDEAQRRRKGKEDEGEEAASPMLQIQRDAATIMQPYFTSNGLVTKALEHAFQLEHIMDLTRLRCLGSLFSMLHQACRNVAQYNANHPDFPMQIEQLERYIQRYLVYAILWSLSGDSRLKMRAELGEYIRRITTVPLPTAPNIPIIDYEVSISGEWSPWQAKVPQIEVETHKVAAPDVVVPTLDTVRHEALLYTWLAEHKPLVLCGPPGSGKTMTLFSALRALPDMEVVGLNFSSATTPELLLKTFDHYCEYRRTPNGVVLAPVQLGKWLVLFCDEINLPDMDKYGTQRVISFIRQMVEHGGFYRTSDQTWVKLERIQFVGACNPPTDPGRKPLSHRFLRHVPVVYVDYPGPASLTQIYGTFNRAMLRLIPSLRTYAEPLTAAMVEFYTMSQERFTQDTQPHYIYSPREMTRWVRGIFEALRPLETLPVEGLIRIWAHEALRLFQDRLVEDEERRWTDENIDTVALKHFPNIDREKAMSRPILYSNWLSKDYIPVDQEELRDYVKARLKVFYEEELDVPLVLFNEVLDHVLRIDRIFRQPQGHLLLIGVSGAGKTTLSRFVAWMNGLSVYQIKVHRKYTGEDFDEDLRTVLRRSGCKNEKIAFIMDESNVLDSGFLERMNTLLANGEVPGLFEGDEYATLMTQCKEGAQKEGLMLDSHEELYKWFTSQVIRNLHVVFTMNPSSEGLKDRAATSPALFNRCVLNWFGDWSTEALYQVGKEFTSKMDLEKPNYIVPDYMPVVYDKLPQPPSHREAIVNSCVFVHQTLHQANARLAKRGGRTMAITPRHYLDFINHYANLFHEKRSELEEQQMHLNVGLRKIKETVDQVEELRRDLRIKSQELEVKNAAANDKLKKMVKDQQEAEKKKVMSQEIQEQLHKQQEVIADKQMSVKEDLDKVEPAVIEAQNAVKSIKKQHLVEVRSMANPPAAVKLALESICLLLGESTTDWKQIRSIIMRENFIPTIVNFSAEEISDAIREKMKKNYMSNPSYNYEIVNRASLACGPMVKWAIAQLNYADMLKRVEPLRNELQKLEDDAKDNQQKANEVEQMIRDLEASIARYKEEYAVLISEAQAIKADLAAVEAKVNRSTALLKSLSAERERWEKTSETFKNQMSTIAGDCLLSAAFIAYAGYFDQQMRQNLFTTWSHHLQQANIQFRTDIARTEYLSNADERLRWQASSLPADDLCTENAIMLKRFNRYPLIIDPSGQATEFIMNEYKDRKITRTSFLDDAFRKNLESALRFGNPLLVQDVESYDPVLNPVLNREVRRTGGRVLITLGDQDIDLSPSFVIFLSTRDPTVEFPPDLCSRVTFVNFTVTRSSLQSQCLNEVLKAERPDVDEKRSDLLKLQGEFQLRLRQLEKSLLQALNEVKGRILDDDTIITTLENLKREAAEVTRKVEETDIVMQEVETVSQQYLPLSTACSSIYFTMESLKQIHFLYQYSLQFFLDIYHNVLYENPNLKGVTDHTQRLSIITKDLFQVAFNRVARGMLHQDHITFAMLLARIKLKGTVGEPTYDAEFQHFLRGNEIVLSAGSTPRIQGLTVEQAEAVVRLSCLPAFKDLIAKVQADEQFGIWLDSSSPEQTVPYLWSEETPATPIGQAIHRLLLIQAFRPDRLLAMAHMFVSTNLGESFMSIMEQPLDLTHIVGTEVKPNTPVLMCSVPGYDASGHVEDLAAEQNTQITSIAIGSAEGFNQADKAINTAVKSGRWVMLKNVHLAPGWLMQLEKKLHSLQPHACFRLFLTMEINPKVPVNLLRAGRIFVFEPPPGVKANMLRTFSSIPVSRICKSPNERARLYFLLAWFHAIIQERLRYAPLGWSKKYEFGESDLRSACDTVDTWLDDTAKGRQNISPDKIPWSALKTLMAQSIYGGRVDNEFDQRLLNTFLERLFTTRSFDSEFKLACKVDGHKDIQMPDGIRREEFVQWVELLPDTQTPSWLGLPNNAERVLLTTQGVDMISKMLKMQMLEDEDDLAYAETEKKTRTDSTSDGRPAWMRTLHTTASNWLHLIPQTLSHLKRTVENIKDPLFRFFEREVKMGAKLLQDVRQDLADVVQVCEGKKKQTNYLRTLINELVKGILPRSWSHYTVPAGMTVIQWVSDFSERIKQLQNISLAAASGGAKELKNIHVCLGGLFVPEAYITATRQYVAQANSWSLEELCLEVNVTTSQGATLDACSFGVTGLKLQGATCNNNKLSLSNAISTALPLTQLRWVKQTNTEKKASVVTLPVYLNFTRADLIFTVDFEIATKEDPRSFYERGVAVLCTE
How it was run: as §1

Structure (SMILES)	isoTOP-ABPP reactivity ratio at lysine Q12931_K699 ([1]; 50 uM, 231 sol, in vitro)	isoTOP-ABPP reactivity ratio at lysine P42345_K2066 ([2]; 50 uM, 231 sol, in vitro)	isoTOP-ABPP reactivity ratio at lysine P23381_K256 [3]	isoTOP-ABPP ratio (R) at liganded lysine P61978_K405 ([4]; 50 uM, in vitro)	isoTOP-ABPP ratio (R) at liganded lysine Q12931_K699 ([1]; 50 uM, in vitro)	isoTOP-ABPP ratio (R) at liganded lysine P23381_K256 [3]	isoTOP-ABPP reactivity ratio at lysine Q14204_K1649 ([5]; 231 sol)	further results
O=C(Oc1ccc([N+](=O)[O-])cc1[N+](=O)[O-])c1cc(C(F)(F)F)cc(C(F)(F)F)c1 [fragment 31, 2,4-Dinitrophenyl 3,5-bis(trifluoromethyl)benzoate]	1.0	1.1	0.9					
O=C(Oc1c(F)c(F)cc(F)c1F)c1cc(C(F)(F)F)cc(C(F)(F)F)c1 [fragment 48, 2,3,5,6-Tetrafluorophenyl 3,5-bis(trifluoromethyl)benzoate]								isoTOP-ABPP ratio, lysine Q12931_K699 ([1]; 50 uM_231_sol_in vitro): 1.0; isoTOP-ABPP ratio, lysine P42345_K2066 ([2]; 50 uM_231_sol_in vitro): 1.0
O=C(Oc1ccc([N+](=O)[O-])cc1[N+](=O)[O-])c1ccc(-c2ccccc2)cc1 [fragment 37, 2,4-Dinitrophenyl [1,1′-biphenyl]-4-carboxylate]				0.9	0.9	0.4		isoTOP-ABPP ratio (R) at liganded lysine P42345_K2066 ([2]; 50 uM, in vitro, sol, 231): 1.0
COC(=O)NC(=NC(=O)OCC1c2ccccc2-c2ccccc21)n1cccn1 [fragment 49, N-Methoxycarbonyl-N′-9-fluorenylmethoxycarbonyl-pyrazole-1-carboxamidine]								isoTOP-ABPP ratio, lysine P61978_K405 ([4]; 100 uM_231_sol_in vitro): 1.9; isoTOP-ABPP ratio, lysine Q12931_K699 ([1]; 100 uM_231_sol_in vitro): 1.2; isoTOP-ABPP ratio, lysine P42345_K2066 ([2]; 100 uM_231_sol_in vitro): 1.0; isoTOP-ABPP ratio, lysine P23381_K256 ([3]; 100 uM_231_sol_in vitro): 1.0
CCn1cc(C(=O)Oc2c(F)c(F)c(F)c(F)c2F)c(=O)c2ccc(C)nc21 [fragment 28, Pentafluorophenyl 1-ethyl-7-methyl-4-oxo-1,4-dihydro-1,8-naphthyridine-3-carboxylate]	0.9	1.0	1.0				1.0	
CC(C)(C)OC(=O)NCCCC(=O)Oc1ccc([N+](=O)[O-])cc1[N+](=O)[O-] [fragment 41, 2,4-Dinitrophenyl 4-((tert-butoxycarbonyl)amino)butanoate]				1.0	1.3	0.9		isoTOP-ABPP ratio (R) at liganded lysine Q14204_K1649 [5]: 1.0
O=C(Oc1c(F)c(F)c(F)c(F)c1F)C1CCN(C(=O)OCc2ccccc2)CC1 [fragment 24, 1-Benzyl 4-(pentafluorophenyl) piperidine-1,4-dicarboxylate]	0.9	1.0					1.3	
O=C(Oc1c(F)c(F)c(F)c(F)c1F)c1ccc2ccccc2n1 [fragment 25, Pentafluorophenyl quinoline-2-carboxylate]	0.9		4.4				1.7	isoTOP-ABPP reactivity ratio at lysine P61978_K405 ([4]; 50 uM, 231 sol, in vitro): 1.3
COc1cc(CCC(=O)Oc2c(F)c(F)c(F)c(F)c2F)cc(OC)c1OC [fragment 23, Pentafluorophenyl 3-(3,4,5-trimethoxyphenyl)propanoate]								R value (DMSO/fragment) for probe 1 labeling ([5]; Q14204_K1649, 231 sol): 1.7; R value (DMSO/fragment) for probe 1 labeling ([1]; Q12931_K699, 50 uM, 231 sol, in vitro): 1.0; R value (DMSO/fragment) for probe 1 labeling ([2]; P42345_K2066, 50 uM, 231 sol, in vitro): 1.1
O=C(Oc1ccc([N+](=O)[O-])cc1[N+](=O)[O-])c1ccc(Oc2ccccc2)cc1 [fragment 39, 2,4-Dinitrophenyl 4-phenoxybenzoate]				0.8	0.9	0.9		isoTOP-ABPP ratio (R) at liganded lysine Q14204_K1649 [5]: 1.0
